A value given as a limit tells only on which side of the number the result lay.

The source of these data is patent US20220242861A1, “IMIDAZOPYRIDINYL COMPOUNDS AND USE THEREOF FOR TREATMENT OF PROLIFERATIVE DISORDERS” (1ST Biotherapeutics, Inc., priority 2019, published 2022).

One experiment deals with T1, recombinant human c-Kit (Homo sapiens, UniProt P10721).
T1 construct: purchased Signalchem
Description: c-Kit Kinase Assay (ADP-Glo). The format is biochemical. The note with it: In vitro kinase activity. As for the experimental part:
ADP-Glo assay kit was purchased from Promega. Magnesium chloride (MgCl2), ethylene glycol-bis([…] ether)-N,N,N′,N′-tetraacetic acid (EGTA), manganese (II) chloride (MnCl2), bovine serum albumin (BSA), 1,4-dithiothreitol (DTT) and dimethyl sulfoxide (DMSO) were purchased from Sigma-Aldrich. HEPES buffer was purchased from Gibco. c-Kit kinase and poly (4:1 Glu, Tyr) peptide were purchased from Signalchem.
(§1) c-Kit kinase activity was measured by Promega's ADP-Glo™ Assay. In this assay, 100ng of recombinant human c-Kit is incubated with 5 μL of compounds (0.5% DMSO), 5 μL of Poly (4:1 Glu, Tyr) peptide (50 ng/μl) and 5 μL of ATP (50 μM) in buffer (50 mM HEPES, pH7.5; 10 mM MgCl2; 1 mM EGTA; 0.05% BSA; 50μM DTT; 2mM MnCl2). The assay was started by incubating the reaction mixture in a 96-well plate at 30° C. for 120-min. After the incubation, 25 μL ADP-Glo reagent was added and the reaction was incubated at room temperature for 40-min to stop the reaction and degrade residual ATP. The ADP product was then converted to ATP by adding 50 μL per well of detection reagent. Luminescence was detected after 30-min room temperature incubation with the Molecular device I3X plate reader. The IC50 values were calculated from a series of percent inhibition values determined at a range of inhibitor concentration using software routines as implemented in the GraphPad Prism 8 software and Sigma Plot 13.0.
For orientation: ADP-Glo first removes unused ATP, then detects ADP through luciferase.

The target of experiment [1] is T2, recombinant human c-Kit (D816V) (Homo sapiens, UniProt P10721, D816V).
T2 construct: purchased Signalchem
T2 sequence (P10721 26-976 D816V): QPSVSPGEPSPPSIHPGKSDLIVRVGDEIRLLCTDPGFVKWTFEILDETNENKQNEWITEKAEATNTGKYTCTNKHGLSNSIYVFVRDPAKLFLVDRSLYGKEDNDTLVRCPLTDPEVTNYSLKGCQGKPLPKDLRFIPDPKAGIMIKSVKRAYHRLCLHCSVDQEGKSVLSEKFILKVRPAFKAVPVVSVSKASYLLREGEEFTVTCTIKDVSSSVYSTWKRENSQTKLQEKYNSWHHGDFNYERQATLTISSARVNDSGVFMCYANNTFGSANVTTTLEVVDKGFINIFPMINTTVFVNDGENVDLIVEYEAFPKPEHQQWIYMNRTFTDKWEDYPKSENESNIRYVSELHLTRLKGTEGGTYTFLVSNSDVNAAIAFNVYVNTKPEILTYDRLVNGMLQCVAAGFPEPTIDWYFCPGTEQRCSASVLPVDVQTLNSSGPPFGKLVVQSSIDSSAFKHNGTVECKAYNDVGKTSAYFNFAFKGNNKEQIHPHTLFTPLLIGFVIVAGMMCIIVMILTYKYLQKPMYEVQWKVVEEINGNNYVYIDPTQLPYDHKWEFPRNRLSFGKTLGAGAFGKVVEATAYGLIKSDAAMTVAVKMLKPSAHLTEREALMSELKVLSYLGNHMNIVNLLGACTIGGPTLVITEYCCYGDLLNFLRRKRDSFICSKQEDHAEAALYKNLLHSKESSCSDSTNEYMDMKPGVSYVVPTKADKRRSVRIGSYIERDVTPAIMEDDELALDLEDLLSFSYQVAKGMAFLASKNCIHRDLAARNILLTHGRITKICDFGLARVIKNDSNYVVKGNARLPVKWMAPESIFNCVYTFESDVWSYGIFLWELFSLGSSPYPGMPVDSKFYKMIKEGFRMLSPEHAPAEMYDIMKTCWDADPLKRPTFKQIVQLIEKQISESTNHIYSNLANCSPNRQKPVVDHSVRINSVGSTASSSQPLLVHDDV
Briefly: c-Kit (D816V) Kinase Assay (ADP-Glo). The note with it: In vitro kinase activity. Type of experiment: biochemical. As for the experimental part:
ADP-Glo assay kit was purchased from Promega. Magnesium chloride (MgCl2), ethylene glycol-bis(β-aminoethyl ether)-N,N,N′,N′-tetraacetic acid (EGTA), bovine serum albumin (BSA), 1,4-dithiothreitol (DTT) and dimethyl sulfoxide (DMSO) were purchased from Sigma-Aldrich. HEPES buffer was purchased from Gibco. c-Kit (D816V) kinase and poly (4:1 Glu, Tyr) peptide were purchased from Signalchem.
as §1, with “c-Kit (D816V)” for “c-Kit”, “Promega's ADP-GIoTM” for “Promega's ADP-Glo™”, “assay, 2.5ng” for “assay, 100ng”, “ATP (15” for “ATP (50”, “BSA; 50 μM DTT).” for “BSA; 50μM DTT; 2mM MnCl2).”

In a further experiment the target is T3, recombinant human PDGFRα (Homo sapiens, UniProt P16234).
T3 construct: purchased Signalchem
T3 sequence (P16234 24-1089): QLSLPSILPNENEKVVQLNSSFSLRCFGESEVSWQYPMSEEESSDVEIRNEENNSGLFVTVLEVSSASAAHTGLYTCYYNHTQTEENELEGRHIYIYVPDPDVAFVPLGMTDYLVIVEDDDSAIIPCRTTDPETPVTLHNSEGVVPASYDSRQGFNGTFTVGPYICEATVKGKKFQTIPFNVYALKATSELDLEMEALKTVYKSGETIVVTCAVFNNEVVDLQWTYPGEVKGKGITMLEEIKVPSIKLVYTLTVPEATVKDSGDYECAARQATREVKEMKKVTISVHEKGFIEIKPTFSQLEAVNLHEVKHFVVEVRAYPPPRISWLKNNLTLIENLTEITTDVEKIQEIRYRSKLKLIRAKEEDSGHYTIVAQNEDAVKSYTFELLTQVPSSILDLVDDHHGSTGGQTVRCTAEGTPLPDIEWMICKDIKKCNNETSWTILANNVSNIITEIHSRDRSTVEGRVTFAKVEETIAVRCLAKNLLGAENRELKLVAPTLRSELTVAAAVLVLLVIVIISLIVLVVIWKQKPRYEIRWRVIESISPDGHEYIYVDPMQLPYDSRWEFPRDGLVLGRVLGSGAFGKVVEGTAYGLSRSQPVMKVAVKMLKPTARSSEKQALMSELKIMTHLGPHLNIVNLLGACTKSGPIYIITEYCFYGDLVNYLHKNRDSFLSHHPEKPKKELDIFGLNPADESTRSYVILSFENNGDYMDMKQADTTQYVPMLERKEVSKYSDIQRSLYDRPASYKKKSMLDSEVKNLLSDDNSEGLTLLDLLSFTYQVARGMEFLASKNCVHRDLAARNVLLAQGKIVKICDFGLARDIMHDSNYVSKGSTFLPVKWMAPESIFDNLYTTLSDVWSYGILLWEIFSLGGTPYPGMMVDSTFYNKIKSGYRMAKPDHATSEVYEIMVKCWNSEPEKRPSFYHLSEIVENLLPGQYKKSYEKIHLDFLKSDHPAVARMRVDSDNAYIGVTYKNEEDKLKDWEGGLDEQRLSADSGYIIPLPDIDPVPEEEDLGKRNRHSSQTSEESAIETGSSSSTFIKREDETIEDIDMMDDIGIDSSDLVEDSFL
Description: PDGFRα Kinase Assay (ADP-Glo). The format is biochemical. As to conditions: In vitro kinase activity, read-out: PDGFRa IC50. As for the experimental part:
ADP-Glo assay kit was purchased from Promega. Magnesium chloride (MgCl2), ethylene glycol-bis(p-aminoethyl ether)-N,N,N′,N′-tetraacetic acid (EGTA), bovine serum albumin (BSA), 1,4-dithiothreitol (DTT) and dimethyl sulfoxide (DMSO) were purchased from Sigma-Aldrich. HEPES buffer was purchased from Gibco. PDGFRα Kinase and poly (4:1 Glu, Tyr) peptide were purchased from Signalchem.
(§2) PDGFRα kinase activity was measured by Promega's ADP-Glo™ Assay. In this assay, 40ng of recombinant human PDGFRα is incubated with 5 μL of compounds (0.5% DMSO), 5 μL of Poly (4:1 Glu, Tyr) peptide (100 ng/μl) and 5 μL of ATP (25 pM) in buffer (50 mM HEPES, pH7.5; 10 mM MgCl2; 1 mM EGTA; 0.05% BSA; 50 μM DTT). The assay was started by incubating the reaction mixture in a 96-well plate at 30° C. for 60-min. After the incubation, 25 μL ADP-Glo reagent was added and the reaction was incubated at room temperature for 40-min to stop the reaction and degrade residual ATP. The ADP product was then converted to ATP by adding 50 μL per well of detection reagent. Luminescence was detected after 30-min room temperature incubation with the Molecular device I3X plate reader. The IC50 values were calculated from a series of percent inhibition values determined at a range of inhibitor concentration using software routines as implemented in the GraphPad Prism 8 software and Sigma Plot 13.0.

Experiment [2] concerns the target T4, recombinant human PDGFRα (D842V) (Homo sapiens, UniProt P16234, D842V).
T4 construct: purchased Signalchem
Briefly: PDGFRα (D842V) Kinase Assay (ADP-Glo). The format is biochemical. As to conditions: In vitro kinase activity. On the procedure:
ADP-Glo assay kit was purchased from Promega. Magnesium chloride (MgCl2), ethylene glycol-bis(p-aminoethyl ether)-N, N, N′, N′-tetraacetic acid (EGTA), bovine serum albumin (BSA), 1,4-dithiothreitol (DTT) and dimethyl sulfoxide (DMSO) were purchased from Sigma-Aldrich. HEPES buffer was purchased from Gibco. PDGFRα (D842V) Kinase and poly (4:1 Glu, Tyr) peptide were purchased from Signalchem.
as §2, with “PDGFRα (D842V)” for “PDGFRα”, “10 ng” for “40ng”, “([…]” for “(25”, “[…]” for “50 μM”, “120-min.” for “60-min.”

The subject of experiment [3] is K562 human leukemia cell line. Briefly: K562 Cell Proliferation Assay (MTS). Type of experiment: cell-based. As to conditions: K562 cells, 48 hr incubation, MTS cell viability. As for the experimental part: K562 human leukemia cell line purchased from Korean cell line bank (KCLB) and were cultured in Roswell Park Memorial Institute (RPMI) 1640 Medium supplemented with 10% fetal bovine serum (FBS) and 1% penicillin-streptomycin in a humidified incubator in an atmosphere of 5% CO2 at 37° C. Cells were seeded in 96-well plates at a density of 2×10^3 cells/well in 100 […] media. Compounds were diluted as two times concentration in 100 μl of media and added to each well. Compounds were 5-fold serially diluted for 6 points and treated from 5 μM to 1.6 nM in K562 cells. After 48 hr incubation, Compound treated cells were analyzed for anti-proliferation assay. Cell viability was investigated using the Cell Titer 96 Aqueous One Solution Reagent. Briefly, 200 μl of media were supplemented with 40 μl of MTS solution, incubated for 4hr, and then the absorbance was recorded at 490 nm with a 96-well plate reader. G150 values were calculated from a series of percent of cell viability at a range of compound concentration. GraphPad Prism 8 software or SigmaPlot 13.0 was used to generate G150 values.

T4 sequence (P16234 24-1089 D842V): as the sequence (P16234 24-1089) above, with D819V counted along it
T1 sequence (P10721 26-976): as the sequence (P10721 26-976 D816V) above, with V791D counted along it

As a reminder, the IC50 is the concentration that gives 50% inhibition. Regarding `O=C(Nc1cn2cc(-c3cccc(F)c3CO)ccc2n1)[C@@H]1C[C@@H]1F` [Example 57, (1 S,2 S)-2-fluoro-N-(6-(3-fluoro-2-(hydroxymethyl)phenyl)imidazo[1,2-a]pyridin-2-yl)cyclopropane-1-carboxamide], the IC50 on recombinant human c-Kit is above 1 µM; in experiment [1] it was 0.101 to 1 µM; on recombinant human PDGFRα it was 0.101 to 1 µM; in experiment [2], 0.01 to 0.1 µM; in experiment [3], 0.101 to 1 µM.

With `CC(=O)c1c(F)cccc1-c1ccc2nc(NC(=O)[C@@H]3C[C@@H]3F)cn2c1` [Example 68, (1 S,2 S)-N-(6-(2-acetyl-3-fluorophenyl)imidazo[1,2-a]pyridin-2-yl)-2-fluorocyclopropanecarboxamide], the IC50 (on recombinant human c-Kit; in experiment [1]; at recombinant human PDGFRα; in experiment [2]) was above 1 µM throughout.

For `NCc1c(F)cccc1-c1ccc2nc(NC(=O)[C@@H]3C[C@@H]3F)cn2c1` [Example 74, (1 S,2 S)-N-(6-(2-(aminomethyl)-3-fluorophenyl)imidazo[1,2-a]pyridin-2-yl)-2-fluorocyclopropanecarboxamide], the IC50 (at recombinant human c-Kit; in experiment [1]; at recombinant human PDGFRα; in experiment [2]) was above 1 µM in each case.

For `CC(=O)NCc1c(F)cccc1-c1ccc2nc(NC(=O)[C@@H]3C[C@@H]3F)cn2c1` [Example 75, (1 S,2 S)-N-(6-(2-(acetamidomethyl)-3-fluorophenyl)imidazo[1,2-a]pyridin-2-yl)-2-fluorocyclopropanecarboxamide], the IC50 (at recombinant human c-Kit; in experiment [1]; on recombinant human PDGFRα; in experiment [2]) was above 1 µM throughout.

As for `CNCc1c(F)cccc1-c1ccc2nc(NC(=O)[C@@H]3C[C@@H]3F)cn2c1` [Example 80, (1 S,2 S)-2-fluoro-N-(6-(3-fluoro-2-((methylamino)methyl)phenyl)imidazo[1,2-a]pyridin-2-yl)cyclopropanecarboxamide], the IC50 (at recombinant human c-Kit; in experiment [1]; on recombinant human PDGFRα; in experiment [2]) was above 1 µM throughout.

For `CC(C)NCc1c(F)cccc1-c1ccc2nc(NC(=O)[C@@H]3C[C@@H]3F)cn2c1` [Example 81, (1 S,2 S)-2-fluoro-N-(6-(3-fluoro-2-((isopropylamino)methyl)phenyl)imidazo[1,2-a]pyridin-2-yl)cyclopropanecarboxamide], the IC50 (on recombinant human c-Kit; in experiment [1]; at recombinant human PDGFRα; in experiment [2]) was above 1 µM in each case.

For `COCCOCc1c(F)cccc1-c1ccc2nc(NC(=O)[C@@H]3C[C@@H]3F)cn2c1` [Example 82], the IC50 is above 1 µM on recombinant human c-Kit, above 1 µM in experiment [1], 0.101 to 1 µM on recombinant human PDGFRα and 0.101 to 1 µM in experiment [2].

In the case of `O=C(Nc1cn2cc(-c3cccc(F)c3COCCO)ccc2n1)[C@@H]1C[C@@H]1F` [Example 83, (1 S,2 S)-2-fluoro-N-(6-(3-fluoro-2-((2-hydroxyethoxy)methyl)phenyl)imidazo[1,2-a]pyridin-2-yl)cyclopropanecarboxamide], the IC50 was above 1 µM at recombinant human c-Kit, above 1 µM in experiment [1], 0.101 to 1 µM on recombinant human PDGFRα and 0.101 to 1 µM in experiment [2].
